This note sets out measurements from patent US20260138990A1, “TRICYCLIC FUSED IMIDAZOLE COMPOUNDS AS CD38 MODULATORS AND USES THEREOF” (AEOVIAN PHARMACEUTICALS, INC., priority 2023, published 2026).

Where only a bound is given, the exact number is not on record here.

Experiment [1] addresses T1, human CD38 (Homo sapiens, UniProt P28907).
T1 construct: purchased Bio-Techne GmbH AVI2404
T1 sequence (P28907 1-300): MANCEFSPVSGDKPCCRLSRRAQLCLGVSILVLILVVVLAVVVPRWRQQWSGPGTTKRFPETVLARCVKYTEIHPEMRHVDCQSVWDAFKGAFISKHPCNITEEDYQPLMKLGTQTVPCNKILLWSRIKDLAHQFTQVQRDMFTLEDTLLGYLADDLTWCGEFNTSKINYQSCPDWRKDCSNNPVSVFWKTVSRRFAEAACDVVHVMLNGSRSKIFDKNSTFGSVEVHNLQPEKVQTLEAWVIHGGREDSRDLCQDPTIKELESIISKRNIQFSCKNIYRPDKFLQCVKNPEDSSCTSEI
Briefly: NAD+ cyclase activity assay with human recombinant CD38 protein (ε-NAD fluorescence). The experiment is classed as biochemical. The following applies: 1.9 nM human CD38, substrate ε-NAD, 30 min preincubation, fluorescence 300/410 nm. As to the method: (§1) Example 4: NAD^+ Cydase Activity Assay with Human or Mouse Recombinant CD38 Protein
(§2) The following assay was used to determine the ability of compounds of the invention to inhibit the hydrolysis of NAD^+ by the human or mouse enzyme, CD38.
(§3) Reaction buffer: 40 mM HEPES/NaOH pH 7.5, 250 mM sucrose, 0.01% Tween
(§4) Final concentrations: 0.6 nM mouse CD38 (4947-AC, Bio-Techne GmbH) 1.9 nM human CD38 (AVI2404, Bio-Techne GmbH)
(§5) Substrate: […] Nicotinamide 1,N6-ethenoadenine dinucleotide (&-NAD)
(§6) Read-out: Fluorescence intensity (extinction 300 nm/emission 410 nm)
(§7) Required reaction buffer, required CD38 concentration in reaction buffer and required e-NAD concentration in reaction buffer were prepared. Thereafter, 8 μL of CD38 in reaction buffer was added to High Control and compound concentration wells in 384 well plate (Corning #4514, 384 well, nonbinding surface, low volume, round bottom) and 8 μL of reaction buffer to Low Control. Compound dilutions were transferred via pintool technology that transfers 42.5 nL compound dilutions (12-point dose-response with factor three dilutions in 100% DMSO) well-to-well. Plate was subsequently shaken for 15 s at 1450 rpm and sealed for incubation for 30 min at room temperature. Thereafter, 2 μL of e-NAD in reaction buffer were added with Integra Voyager. After shaking for 15 s at 1450 rpm, plate was sealed, and assay signal were measured continuously with PHERAstar® fluorescence intensity module (extinction 300 nm/emission 410 nm).
(§8) Dose-response curves were constructed using twelve-pointfactor three dilutions in triplicates per plate. High control (full enzyme activity) was set to assay signal of CD38 and e-NAD in presence of vehicle (DMSO) and Low control (full enzyme inhibition) was set to assay signal of e-NAD and vehicle (DMSO) in absence of CD38. For data analysis, fluorescent signal of traces corresponding to each compound concentration and High and Low control were monitored over time. Each run, High Control (full enzyme activity) was fitted to Linear equation via GraphPad Prism to determine CD38 activity from the slope and determine the time interval of linear phase of reaction to account for minor fluctuations. Thereafter, slopes of all compound concentrations were determined via fitting to same linear equation (GraphPad Prism) over the same time interval as determined for High control. […] Unless otherwise stated, fitting of curves were fixed to 100%-inhibition and unlocked for 0%-inhibition.

Experiment [2] addresses T2, mouse CD38 (Mus musculus, UniProt P56528).
T2 construct: purchased Bio-Techne GmbH 4947-AC
T2 sequence (P56528 1-304): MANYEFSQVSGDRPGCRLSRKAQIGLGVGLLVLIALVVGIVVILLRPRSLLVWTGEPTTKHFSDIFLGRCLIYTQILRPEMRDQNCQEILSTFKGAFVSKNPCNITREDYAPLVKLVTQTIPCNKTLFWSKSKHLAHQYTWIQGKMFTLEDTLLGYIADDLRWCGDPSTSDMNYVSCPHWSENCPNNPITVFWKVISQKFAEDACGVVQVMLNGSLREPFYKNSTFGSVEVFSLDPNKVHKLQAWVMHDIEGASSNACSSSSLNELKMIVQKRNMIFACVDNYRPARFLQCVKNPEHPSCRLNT
Briefly: NAD+ cyclase activity assay with mouse recombinant CD38 protein (ε-NAD fluorescence). The experiment is classed as biochemical. The following applies: 0.6 nM mouse CD38, substrate ε-NAD, 30 min preincubation, fluorescence 300/410 nm. How it is done: as §1, §2, §3, §4, §5, §6, §7, §8

As to `O=C(NC1CC(F)(F)C1)c1cc(F)c2c(c1)-c1cncn1CCO2` [Compound 135A, N-(3,3-Difluorocyclobutyl)-8-fluoro-5,6-dihydrobenzo[f]imidazo[1,5-d][1,4]oxazepine-10-carboxamide], the IC50 (in general, the point on the concentration scale where inhibition reaches its midpoint) in experiment [1] was under 30 nM; in experiment [2], under 1 nM.

In the case of `O=C(N[C@@H]1CCCOC1)c1cc(F)c2c(c1)-c1cncn1CCO2` [Compound 130A, (R)-8-Fluoro-N-(tetrahydro-2H-pyran-3-yl)-5,6-dihydrobenzo[f]imidazo[1,5-d][1,4]oxazepine-10-carboxamide], the IC50 in experiment [1] is 30 to 100 nM; in experiment [2], 1 to 10 nM.

As to `O=C(N[C@H]1CC[C@H](OC2CC(F)(F)C2)CC1)c1ccc2c(c1)-c1cncn1CCO2` [Compound 152A, N-((1r,4r)-4-(3,3-Difluorocyclobutoxy)cyclohexyl)-5,6-dihydrobenzo[f]imidazo[1,5-d][1,4]oxazepine-10-carboxamide], the IC50 in experiment [1] is under 30 nM; in experiment [2], 1 to 10 nM.

As to `CC1(F)CC(NC(=O)c2cc(F)c3c(c2)-c2cncn2CCO3)C1` (stereo not drawn) [Compound 138A, 8-Fluoro-N-(3-fluoro-3-methylcyclobutyl)-5,6-dihydrobenzo[f]imidazo[1,5-d][1,4]oxazepine-10-carboxamide], the values for the IC50 in experiment [1] and in experiment [2] were under 30 nM and 1 to 10 nM, respectively.

Turning to `C[C@H](N[C@H]1CC[C@H](NC(=O)c2ccc3c(c2)-c2cncn2CCO3)CC1)C(F)(F)F` [Compound 87A, N-((1r,4r)-4-(((S)-1,1,1-Trifluoropropan-2-yl)amino)cyclohexyl)-5,6-dihydrobenzo[f]imidazo[1,5-d][1,4]oxazepine-10-carboxamide], the IC50 in experiment [1] was under 30 nM; in experiment [2] it was under 1 nM.

Consider `O=C(N[C@H]1CC[C@H](O[C@H]2C[C@@H](F)C2)CC1)c1ccc2c(c1)-c1cncn1CCO2` [Compound 147A, N-((1r,4r)-4-((1s,3s)-3-Fluorocyclobutoxy)cyclohexyl)-5,6-dihydrobenzo[f]imidazo[1,5-d][1,4]oxazepine-10-carboxamide], for which the results for the IC50 in experiment [1] and in experiment [2] were under 30 nM and 1 to 10 nM, respectively.

Consider `CC1(C)Cn2cncc2-c2cc(C(=O)N[C@@H]3CCCOC3)ccc2O1` [Compound 38A, (R)-6,6-Dimethyl-N-(tetrahydro-2H-pyran-3-yl)-5,6-dihydrobenzo[f]imidazo[1,5-d][1,4]oxazepine-10-carboxamide], for which the IC50 in experiment [1] is over 1000 nM; in experiment [2] it was 10 to 100 nM.

Regarding `O=C(N[C@H]1CC[C@H](NCCC(F)(F)F)CC1)c1ccc2c(c1)-c1cncn1CCO2` [Compound 110A, N-((1r,4r)-4-((3,3,3-Trifluoropropyl)amino)cyclohexyl)-5,6-dihydrobenzo[f]imidazo[1,5-d][1,4]oxazepine-10-carboxamide], the values for the IC50 in experiment [1] and in experiment [2] were 30 to 100 nM and 1 to 10 nM, respectively.

As for `COCC1COc2cc(NC(=O)c3ccc4c(c3)-c3cncn3CCO4)cnc2O1` (stereo not drawn) [Compound 144A, N-(3-(Methoxymethyl)-2,3-dihydro-[1,4]dioxino[2,3-b]pyridin-7-yl)-5,6-dihydrobenzo[f]imidazo[1,5-d][1,4]oxazepine-10-carboxamide], the IC50 in experiment [1] was under 30 nM; in experiment [2] it was 1 to 10 nM.

As for `O=C(NC1CC(F)(F)C1)c1cc(Cl)c2c(c1)-c1cncn1CCO2` [Compound 134A, 8-Chloro-N-(3,3-difluorocyclobutyl)-5,6-dihydrobenzo[f]imidazo[1,5-d][1,4]oxazepine-10-carboxamide], the results for the IC50 in experiment [1] and in experiment [2] were under 30 nM and under 1 nM, respectively.

Consider `O=C(N[C@H]1CC[C@H](N2CC(C(F)F)C2)CC1)c1ccc2c(c1)-c1cncn1CCO2` [Compound 113A, N-((1r,4r)-4-(3-(Difluoromethyl)azetidin-1-yl)cyclohexyl)-5,6-dihydrobenzo[f]imidazo[1,5-d][1,4]oxazepine-10-carboxamide], for which the IC50 is under 30 nM in experiment [1] and 1 to 10 nM in experiment [2].

Take `COCCO[C@H]1CC[C@H](NC(=O)c2cc3c(c(F)c2F)OCCn2cncc2-3)CC1` [Compound 95A, 8,9-Difluoro-N-((1r,4r)-4-(2-methoxyethoxy)cyclohexyl)-5,6-dihydrobenzo[f]imidazo[1,5-d][1,4]oxazepine-10-carboxamide]: the IC50 is under 30 nM in experiment [1] and 1 to 10 nM in experiment [2].

With `O=C(NC1CCCC(F)(F)C1)c1ccc2c(c1)-c1cncn1CCO2` (stereo not drawn) [Compound 96A, N-(3,3-Difluorocyclohexyl)-5,6-dihydrobenzo[f]imidazo[1,5-d][1,4]oxazepine-10-carboxamide], the IC50 in experiment [1] was under 30 nM; in experiment [2], 1 to 10 nM.

Turning to `O=C(N[C@H]1CC[C@H](OCC(F)(F)F)CC1)c1cc(Cl)c2c(c1)-c1cncn1CCO2` [Compound 157A, 8-Chloro-N-((1r,4r)-4-(2,2,2-trifluoroethoxy)cyclohexyl)-5,6-dihydrobenzo[f]imidazo[1,5-d][1,4]oxazepine-10-carboxamide], the IC50 in experiment [1] was under 30 nM; in experiment [2], under 1 nM.

As to `CCCS(=O)(=O)N[C@H]1CC[C@H](NC(=O)c2ccc3c(c2)-c2cncn2CCO3)CC1` [Compound 37A, N-((1r,4r)-4-(Propylsulfonamido)cyclohexyl)-5,6-dihydrobenzo[f]imidazo[1,5-d][1,4]oxazepine-10-carboxamide], the values for the IC50 in experiment [1] and in experiment [2] were under 30 nM and 1 to 10 nM, respectively.

`O=C(N[C@H]1CC[C@H](N2CCC(F)(F)C2)CC1)c1ccc2c(c1)-c1cncn1CCO2` [Compound 71A, N-((1r,4r)-4-(3,3-Difluoropyrrolidin-1-yl)cyclohexyl)-5,6-dihydrobenzo[f]imidazo[1,5-d][1,4]oxazepine-10-carboxamide]: the half-maximal inhibitory concentration (IC50) in experiment [1] was under 30 nM; in experiment [2], 1 to 10 nM.

For `CC1(C)CC(NC(=O)c2cc(F)c3c(c2)-c2cncn2CCO3)C1` [Compound 143A, N-(3,3-Dimethylcyclobutyl)-8-fluoro-5,6-dihydrobenzo[f]imidazo[1,5-d][1,4]oxazepine-10-carboxamide], the IC50 in experiment [1] is under 30 nM; in experiment [2], under 1 nM.

Turning to `O=C(N[C@H]1CC[C@H](C(=O)NCC(F)(F)F)CC1)c1ccc2c(c1)-c1cncn1CCO2` [Compound 61A, N-((1r,4r)-4-((2,2,2-Trifluoroethyl)carbamoyl)cyclohexyl)-5,6-dihydrobenzo[f]imidazo[1,5-d][1,4]oxazepine-10-carboxamide], the half-maximal inhibitory concentration (IC50) is under 30 nM in experiment [1] and under 1 nM in experiment [2].

For `COCCO[C@H]1CC[C@H](NC(=O)c2cc(F)c3c(c2)-c2cncn2CCO3)CC1` [Compound 57A, 8-Fluoro-N-((1r,4r)-4-(2-methoxyethoxy)cyclohexyl)-5,6-dihydrobenzo[f]imidazo[1,5-d][1,4]oxazepine-10-carboxamide], the IC50 in experiment [1] was under 30 nM; in experiment [2], under 1 nM.

On to `CS(=O)(=O)c1cncc(NC(=O)c2ccc3c(c2)-c2cncn2CCO3)c1` [Compound 22A, N-(5-(Methylsulfonyl)pyridin-3-yl)-5,6-dihydrobenzo[f]imidazo[1,5-d][1,4]oxazepine-10-carboxamide], for which the IC50 was under 30 nM in experiment [1] and 1 to 10 nM in experiment [2].

Take `CN1CCOc2ncc(NC(=O)c3ccc4c(c3)-c3cncn3CCO4)cc21` [Compound 101A, N-(1-Methyl-2,3-dihydro-1H-pyrido[2,3-b][1,4]oxazin-7-yl)-5,6-dihydrobenzo[f]imidazo[1,5-d][1,4]oxazepine-10-carboxamide]: the IC50 was under 30 nM in experiment [1] and under 1 nM in experiment [2].
